We go through four molecules from US20130295100A1, “MARKERS FOR ACUTE KIDNEY INJURY AND USES THEREOF” (OSPEDALE SAN RAFFAELE S.R.L., priority 2010, published 2013).

One data set concerns ouabain antiserum. Conditions: radioimmunoassay for endogenous ouabain, as previously described; cited from earlier work.
Data set [1] has as its system normotensive Sprague-Dawley rats. Description: Chronic subcutaneous ouabain infusion in rats (OHR): blood pressure and renal function. It is filed as in vivo, rat. The following applies: 8 weeks. Here is the method: Care and husbandry of rats complied with the European Directives No. 86/609 and with the Italian Law (DL116, Jan. 27, 1992). The authorization for animal use in Prassis Sigma-Tau laboratories was obtained from the Italian Health Authority. Ouabain hypertensive rats (OHR) were obtained by subcutaneous ouabain infusion (Sprague-Dawley rats, 15 μg/kg/day ouabain from Sigma-Aldrich, n=7) with osmotic mini-pumps for 8 weeks as described.^1,2 Normotensive control rats received sterile saline (n=7). Systolic blood pressure and heart rate were recorded weekly in conscious rats by tail-cuff plethysmography.
Rats were housed in single metabolic cages and 24 h-urine samples were collected and analyzed for total protein and creatinine excretion (kits from Sentinel Diagnostics, Milan, Italy) as described in Doi M, et al.^29 At sacrifice, rat plasma was collected for creatinine determination.

For data set [2], the system named is nephrin, synaptopodin (podocyte proteins). Briefly: Immunofluorescence of podocyte proteins in kidney sections of ouabain-infused rats. The data set is classed as in vivo, rat. Conditions: OHR vs control rats. How it is done:
Immunofluorescence was performed on rat kidney sections by using anti-nephrin and anti-synaptopodin antibodies as described.^30

Data set [3] has the same test system. Briefly: Western blot of renal microsomes from ouabain-infused rats. The following applies: OHR vs control rats. The data set is classed as in vivo, rat. Here is the method:
Renal microsomes were prepared from ouabain-infused rats and saline controls as described^30 and analyzed by Western blotting.
(§1) Samples were analyzed by Western blotting using specific antibodies against podocyte markers, such as nephrin (Santa Cruz Biotechnology), podocin (Sigma-Aldrich), synaptopodin (Progen Biotechnik), ZO-1 (Invitrogen) as described in Ferrandi M, et al (J Mol Med 2010; 88:203-217).^30 Actin (Sigma-Aldrich) was used for normalization.

Data set [4] concerns glomerular podocytes (nephrin, synaptopodin expression). Briefly: Western blot of cultured rat glomerular podocytes incubated with ouabain. It is filed as cell-based. Conditions: 10^−9 M ouabain for 4 days, vs control group. How it is done: Kidneys were taken from 7-10 day-old rats and glomerular podocytes were isolated and cultured as described.^30 Cell characterization was performed using markers of podocytes (nephrin, podocin, synaptopodin), epithelial (cytokeratin), smooth muscle (a-SMC) and endothelial cells (CD31). Podocytes were incubated in the absence or presence of 10^−9 M ouabain for 4 days and analyzed by Western blotting.
as §1

In the next data set the test system is hypertension in patients. Conditions: reference 34; cited from earlier work.
The mark [5] stands for this setting: ouabain 15 μg/kg/day s.c., OHR vs saline controls, p<0.05.

As for `C[C@H]1O[C@@H](O[C@H]2[C@@H](O)C[C@H](O[C@H]3[C@@H](O)C[C@H](O[C@H]4CC[C@@]5(C)[C@H](CC[C@@H]6[C@@H]5C[C@@H](O)[C@]5(C)[C@@H](C7=CC(=O)OC7)CC[C@]65O)C4)O[C@@H]3C)O[C@@H]2C)C[C@H](O)[C@@H]1O` [digoxin], the “cross-reactivity of ouabain antiserum” value with ouabain antiserum is recorded as “approximately 0.42%”.

Regarding `C[C@@H]1O[C@@H](O[C@H]2C[C@@H](O)[C@]3(CO)[C@H]4[C@H](O)C[C@]5(C)[C@@H](C6=CC(=O)OC6)CC[C@]5(O)[C@@H]4CC[C@]3(O)C2)[C@H](O)[C@H](O)[C@H]1O` [ouabain], the “systolic blood pressure (SBP)” value in data set [1] (ouabain 15 μg/kg/day s.c. by osmotic mini-pump, OHR vs saline controls, n=7) was “significantly raised”. Moreover, the urinary creatinine in data set [1] (ouabain 15 μg/kg/day s.c., 24 h urine, OHR) stood at 33.8±1.4 mg/24 h. The “reduction of creatinine clearance vs controls” value in data set [1] (ouabain 15 μg/kg/day s.c., OHR vs saline controls, p<0.02) is on record as −18%. In addition, in data set [1] (setting [5]), the “increase of plasma creatinine vs controls” value was “+14%” and the “urinary protein excretion, change vs controls” value is reported as “+54%”. The “synaptopodin staining in kidney sections” value in data set [2] (data not shown) is given as “but not for synaptopodin”. Further, the “nephrin staining in kidney sections” value in data set [2] (three rats per group) was “significant reduction of staining”. Also, the “nephrin expression in renal microsomes, normalized for actin” value in data set [3] is “reduced expression”. Also, the “synaptopodin expression in renal microsomes” value in data set [3] (data not shown) was “but not of synaptopodin”. Further, in data set [4], the “nephrin expression in podocytes, normalized for actin” value was “decreased expression”.

As for `C[C@]12CC[C@H](O)C[C@H]1CC[C@@H]1[C@@H]2CC[C@]2(C)[C@@](O)(c3ccoc3)CC[C@]12O` [rostafuroxin], the “antihypertensive activity in patients” value with hypertension in patients is “has been shown to have antihypertensive activity”.

Regarding `CC(=O)S[C@@H]1CC2=CC(=O)CC[C@]2(C)[C@H]2CC[C@@]3(C)[C@@H](CC[C@@]34CCC(=O)O4)[C@H]12` [spironolactone], in the data set with ouabain antiserum, the “cross-reactivity of ouabain antiserum” value was under 0.01%.
